Results: patent publication US20220017833A1, “Methods and Compositions for Scavenging Sulfides from Hydrocarbon Fluids and Aqueous Streams” (Nexgen Oilfield Chemicals, LLC, priority 2019, published 2022)

How the values were obtained:
[1] = operational testing in a natural gas production facility; conditions: natural gas production facility
Procedure: In operational testing in a natural gas production facility, both an anhydrous glyoxy isopropyl aminacetal (GIDAc) scavenging system and an aqueous glyoxy isopropyl diaminol (GIDA) scavenging system were tested in comparison with an industry standard triazine-based scavenger.

[2] = Short Reaction Time Capacity Test; conditions: for Min/Eq BT / Min/Eq FD / Min to BT / Min to FD: 20 g test; for Min to BT / Min to FD: 3.00 g BuOH, GIDA 6.68 g as GID, 3.32 g water
From the text: (§1) Referring now to FIG. 1, therein is schematically depicted a sulfide scavenger testing system 100 comprising a gas source 2, a flow regulator 4, gas treatment vessel 6, and a sulfide measurement device 8. In one testing embodiment, gas (not shown) is flowed from gas source 2 via gas feed piping 10 into flow regulator 4, which regulates gas flow to gas treatment vessel 6 via regulated gas feed piping 12. The regulated gas flows into gas treatment vessel 6 via a bottom inlet 14 thereof, where it comes into contact with a volume of liquid 16 comprising a sulfide scavenger system (not separately labeled). The gas, having been treated by the liquid, flows out of a top end 18 of gas treatment vessel 6 and flows into sulfide measurement device 8 via treated gas outlet piping 20.
In one embodiment, gas flow from the flow regulator 4 is controlled such that the gas is flowed into the gas treatment vessel 6 at a flow rate of 100 mL/min. up to 500 mL/min. In one embodiment, a gas sparging device, such as a fine pore frit (not shown), is utilized to better distribute the gas into the scavenger liquid. In one embodiment, the gas treatment vessel 6 contains about 20 g of a liquid H2S scavenger, such as one or more diaminols/diaminacetals in a chemical system as described above. In one aspect, to the extent possible, H2S and/or CO2 are scavenged from the gas by the scavenger and the treated (“sweet”) gas exits top end 18 of treatment vessel 6. In one embodiment, sulfide measurement device 8 monitors the concentration of H2S leaving treatment vessel 6. in the gas phase. In other embodiments (not shown), a CO2 measurement device may be similarly employed to monitor the concentration of CO2 leaving treatment vessel 6 in the gas phase.
(§2) In one embodiment, gas is flowed through sulfide scavenger testing system 100 until the outlet H2S concentration reaches a 4,000 ppm target, at which point the test is concluded. This relative time duration before the target is reached is used to compare H2S scavenger capacity given the kinetics of each sulfide scavenger system. The longer the duration, the better the capacity.
(§3) The fine bubbles produced rise slowly, providing plenty of time, plenty of surface area, and a short path through which the H2S must diffuse to the scavenger in the liquid 16. Detector 8 on the outlet line 20 is used to measure H2S concentration in the exiting gas. The times to first detection (FD), at a threshold of 15 ppm, and to complete breakthrough (BT), at the detector saturation of 4000 ppm (0.4%), are recorded. This test is designed to measure the effective scavenging capacity in applications with long contact times.
This test is the same as the Long Reaction Time Capacity Test, but without the gas sparging device, so as to produce larger bubbles, and at a higher feed rate of 200 mL/min, after the first 8 minutes at 100 mL/min. The larger bubbles rise quickly through the liquid 16, providing little time, little surface area, and a long path through which the H2S must diffuse to the scavenger in the liquid. This test is designed to measure the effective scavenging capacity in applications with short contact times. It is far more reaction rate dependent than the Long Reaction Time Capacity and so is a more critical and differentiating test.
With triazine, one H2S reacts twice with the same molecule of triazine, replacing one amine, so the rate is “first order”, meaning proportional to the concentration of triazine.

[3] = Long Reaction Time Capacity Test; conditions: for Min/Eq BT / Min/Eq FD / Min to BT / Min to FD: 20 g test
From the text: as §1
In one embodiment, the gas contained in gas source 2 consists substantially of about 15% H2S, and about 3% CO2, with the remainder being Methane. In one embodiment, gas flow from the flow regulator 4 is controlled such that the gas is flowed into the gas treatment vessel 6 at a flow rate of 100 mL/min. up to 500 mL/min. In one embodiment, a gas sparging device, such as a fine pore frit (not shown), is utilized to better distribute the gas into the scavenger liquid. In one embodiment, the gas treatment vessel 6 contains about 20 g of a liquid H2S scavenger, such as one or more diaminols/diaminacetals in a chemical system as described above. In one aspect, to the extent possible, H2S and/or CO2 are scavenged from the gas by the scavenger and the treated (“sweet”) gas exits top end 18 of treatment vessel 6. In one embodiment, sulfide measurement device 8 monitors the concentration of H2S leaving treatment vessel 6. in the gas phase. In other embodiments (not shown), a CO2 measurement device may be similarly employed to monitor the concentration of CO2 leaving treatment vessel 6 in the gas phase.
as §2
as §3, with “In this test, methane containing 15% H2S and 3% CO2 by weight is sparged via a fine pore frit (not shown) at 100 mL/min through a column of 20 g of scavenger solution (See FIG. 1). The fine” for “The fine”
Note that the true total capacity of a scavenger with infinite time to react is simply equal to the stoichiometry of the reaction—the moles of H2S consumable per mole of scavenging molecule, which can be calculated. This Long Reaction Time Capacity measurement falls short of that ultimate stoichiometric capacity and so is still reaction rate dependent, just less so than the Short Reaction Time Capacity Test.

[4] = Eq/test GIDAc 0.114, GIDA 0.076 (8.00 g MeOH, 2.00 g BuOH)
[5] = Eq/test Triazine 0.068, GIDAc 0.157, GIDA 0.076 (7.50 g MeOH, 2.50 g BuOH)
[6] = GIDAc 8.00 g as GID, 9.00 g MeOH, 8.00 g MeOH, 2.00 g BuOH
[7] = Triazine 7.50 g + 12.50 g water, GIDAc 11.00 g as GID, 6.00 g MeOH, 7.50 g MeOH, 2.50 g BuOH
[8] = Short Reaction Time Capacity Test, Table 2 compositions
[9] = Eq/test Triazine 0.068, GIDAc 0.185, GIDA 0.076
[10] = GIDAc 9.00 g as GID + 11.00 g MeOH
[11] = Triazine 7.50 g + 12.50 g water, GIDAc 13.00 g as GID + 7.00 g MeOH, GIDA 6.68 g as GID, 3.32 g water, 8.00 g MeOH, 2.00 g BuOH

## COC(NC(C)C)C(NC(C)C)OC (stereo not drawn) [GIDAc]
[1]
  employable in scavenging H2S from natural gas: employable
[2]; [4]
  Min/Eq BT: 438 Min/Eq
  Min/Eq FD: 368 Min/Eq
[2]; [5]
  Min/Eq BT: 376 Min/Eq
  Min/Eq FD: 319 Min/Eq
[2]; [6]
  Min to BT: 50 min
  Min to FD: 42 min
[2]; [7]
  Min to BT: 59 min
  Min to FD: 50 min
[2]; Graph 1 (FIG. 3)
  molar capacity at short reaction times (comparison, accounting for molar concentration): lower molar capacity at short reaction times
[2]; [8]
  contribution to the BT capacity (coefficient of best fit equation): 404 minutes per equivalent
  contribution to the FD capacity (coefficient of best fit equation): 324 minutes per equivalent
[3]; [9]
  Min/Eq BT: 707 Min/Eq
  Min/Eq FD: 566 Min/Eq
[3]; GIDAc 0.128 Eq/test
  Min/Eq BT: 771 Min/Eq
  Min/Eq FD: 592 Min/Eq
[3]; [10]
  Min to BT: 99 min
  Min to FD: 76 min
[3]; [11]
  Min to BT: 131 min
  Min to FD: 105 min
[3]; Graph 1 (FIG. 3)
  molar capacity at long reaction times (comparison, accounting for molar concentration): the same capacity as GIDA at long reaction times
